Assay results as given in patent publication US20250296953A1, “3,4-THIAZOLO-STEROIDS AND METHODS OF MAKING AND USING THE SAME” (Arkansas State University - Jonesboro, priority 2018, published 2025).
Where two headings read alike, the source gives them in different places.

Assays:
Assay type in all cases: cell-based
[1] = test system: SK-MEL-25; assay: Melanoma cytotoxicity assay (resazurin); conditions: for IC50: Homo sapiens; for SK-MEL-25 (% viability): human, 24 h
Procedure, shortened: (§1)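 About 4000 cells per well were seeded and held 24 h at 37° C, 5% CO2, then exposed to compounds in triplicate for 24 h. Resazurin was added for 6 h and fluorescence read at 544/590 nm; IC50 came from sigmoidal fits of viability versus concentration.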

[2] = test system: SK-MEL-5; assay: Melanoma cytotoxicity assay (resazurin); conditions: human, 24 h
Procedure, shortened: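 ~4000 cells/well seeded 24 h, then compound added in triplicate for 24 h at 37° C, 5% CO2. Resazurin added for 6 h; fluorescence at 544/590 nm, background-subtracted and normalised to DMSO wells as % viability; IC50 from sigmoidal fit of serial dilutions.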

[3] = test system: LOX IMVI; assay: Melanoma cytotoxicity assay (resazurin); conditions: for IC50: Homo sapiens, LOX IMVI melanoma cells; for LOX-IMVI (% viability): human, 24 h
Procedure, shortened: as §1

[4] = test system: SK-MEL-28; assay: Melanoma cytotoxicity assay (resazurin); conditions: for IC50: Homo sapiens, SK-MEL-28 melanoma cells; for SK-MEL-28 (% viability): human, 24 h
Procedure, shortened: as §1

[5] = test system: HFF-1; assay: Cytotoxicity assay (resazurin); conditions: Homo sapiens, HFF-1 cells
[6] = test system: MALME-3M; assay: Melanoma cytotoxicity assay (resazurin); conditions: human, 24 h
Protocol: On day 1, the cell line trypsinized and centrifuged to form cell pellet. The pellet was diluted in media, then counted using Countess automated cell counter. Approximately 4000 cells (198 uL) per well plated in […]. A control well of 200 uL growth media was also prepared. Wells closest to plate perimeter were filled with 200 uL PBS to prevent inner well evaporation. The 96 well plates are incubated in 37° C. incubator at 5% CO2 for 24 hours.
On day 2, compounds were added (in triplicate) along with DMSO/Dacarbazine controls (2 uL) added to bring wells to volume of 200 μL. The 96 well plates are incubated in 37° C. incubator at 5% CO2 for 24 hours.
On day 3, 40 μL of 0.15 mg/ml reszurin solution added to wells. Samples were placed in a 37° C. incubator at 5% CO2 for 6 hours. Excitation and emission for fluorescence measured at 544 nm and 590 nm using BMG Labtech Fluostar Optima plate reader
Percent viability determined by taking average of each triplicate well fluorescence and subtracting GM well reading to remove the background signal. This difference is then divided by the average of the negative control (DMSO) wells to determine percent viability.
IC50s were determined by using cereal dilution of compound to determine viability. Viabilities and concentration of cells are analyzed in Graphpad Prism by creating sigmoidal curve graph, which will determine the IC50 concentration.
We analyzed the ability of the thiazole-androstane derivatives to inhibit growth in various melanoma cell lines. The growth inhibition against melanoma cell lines of various compound is shown below in Tables 19 and 20. Inhibition results are reported as the IC50 concentration in μM of the indicated compound or as the percent viability […] of the indicated compound. NA=not available.

[7] = SK-MEL-25 melanoma cells (head prints SK-25), read-out: SK-25 IC50

Compound | IC50 [1, 7] [µM] | SK-MEL-25 (% viability) [1] [%] | SK-MEL-5 (% viability) [2] [%] | IC50 [3] [µM] | IC50 [4] [µM] | SK-MEL-28 (% viability) [4] [%] | IC50 ([5]; read-out: HFF-1 (IC50)) [µM] | MALME-3M (% viability) [6] [%] | LOX-IMVI (% viability) [3] [%] | IC50 ([1]; SK-MEL-25 melanoma cells, 24 hours, resazurin, read-out: SK-MEL-25 (IC50)) [µM] | IC50 ([3]; 24 hours, resazurin) [µM] | IC50 ([4]; 24 hours, resazurin) [µM] | IC50 ([5]; read-out: IC50 in cell line HFF-1) [µM]
C[C@]12CC[C@H]3[C@@H](CC=C4c5sc(Nc6ccc(F)cc6F)nc5CC[C@@]43C)[C@@H]1CC[C@@H]2O [IIIa.13, (1S,2R,13R,14S,17S,18S)-7-(2,4-difluoroanilino)-2,18-dimethyl-8-thia-6-azapentacyclo[11.7.0.02,10.05,9.014,18]icosa-5(9),6,10-trien-17-ol] | 8 | 8.72 | 4.9 | 6.42 | 11 | 3.92 | 25 | 20.83 | – | – | – | – | –
C[C@]12CC[C@H]3[C@@H](CC=C4c5sc(Nc6ccc(F)cc6)nc5CC[C@@]43C)[C@@H]1CC[C@@H]2O [IIIa.12, (1S,2R,13R,14S,17S,18S)-7-(4-fluoroanilino)-2,18-dimethyl-8-thia-6-azapentacyclo[11.7.0.02,10.05,9.014,18]icosa-5(9),6,10-trien-17-ol] | 7 | 7.33 | 3.66 | 5.2 | 10 | 2.35 | 24 | 35.97 | 12 | – | – | – | –
Cc1ccc(Nc2nc3c(s2)C2=CC[C@H]4[C@@H]5CC[C@H](O)[C@@]5(C)CC[C@@H]4[C@@]2(C)CC3)cc1 [IIIa.33, (1S,2R,13R,14S,17S,18S)-2,18-dimethyl-7-(4-methylanilino)-8-thia-6-azapentacyclo[11.7.0.02,10.05,9.014,18]icosa-5(9),6,10-trien-17-ol] | 6 | 7.53 | 1.21 | 4.64 | 6 | 0.90 | 13 | 23.03 | 6 | < 10 | < 10 | < 10 | 13
C[C@]12CC[C@H]3[C@@H](CC=C4c5sc(Nc6ccccn6)nc5CC[C@@]43C)[C@@H]1CC[C@@H]2O [IIIa.24, (1S,2R,13R,14S,17S,18S)-2,18-dimethyl-7-(2-pyridylamino)-8-thia-6-azapentacyclo[11.7.0.02,10.05,9.014,18]icosa-5(9),6,10-trien-17-ol] | – | 1.76 | 2.25 | > 20 | – | 1.50 | > 20 | 10.69 | – | – | – | – | –
